Data as given in US20260284208A1, “SYSTEM” (Oxford University Innovation Limited, priority 2023, published 2026).

System: library of 8,380 IKZF3 degrons (ZF-eGFP/mCherry reporter) in Jurkat cells
Assay: Pooled library screen (FACS, NGS, limma voom LogFC of positive vs negative read counts)
Assay type: cell-based, human
Experimental: A library of 8,380 IKZF3 degrons was cloned into pLVX-Sprout to create the eGFP/mCherry protein degradation reporter plasmid pool. A lentivirus pool was then generated using the Lenti-X lentiviral vector production method.
Jurkat cells were transduced at a multiplicity of infection of <0.3 with the lentivirus vector library in order to maximise the number of cells with a single integration. Transductions were carried out in 6 well TC-treated cell culture dishes (Falcon) with 3×10^6 cells per well. Cells were incubated for 2 days at 37° C. and 5% CO2 before the supernatant was removed and replaced with fresh media. 6 days post-transduction, mCherry+ cells were isolated via FACS using the FACS Aria Fusion (BD) in a buffer containing PBS (Gibco), 2 mM EDTA (Gibco), 25 mM HEPES (Sigma) and 1% BSA (Sigma). 8 days later, cells were treated with DMSO or a thalidomide analog for 18 hours at 37° C. and 5% CO2. mCherry+GFPlow and NOT(mCherry+GFPlow) cells were sorted by FACS using the FACS Aria Fusion (BD). DMSO treated cells were used to set the mCherry+GFPlow gate and dead cells were excluded from sorting by staining cells with 1 μg/mL DAPI (ThermoFisher). gDNA was isolated using the Maxwell RSC 48 (Promega). gDNA from cells that were unsorted and untreated were also isolated to determine the library representation on the day of compound treatment. Throughout the screen >600× coverage of the library was maintained. 3 biological replicates were carried out with a new transduction taking place each time.
A two-step PCR was used where the first PCR (PCR1) amplified the integrated degron sequence from gDNA and the second PCR (PCR2) added Illumina adaptors and barcodes to permit multiplexing. See Supp F for PCR1 and PCR2 primers. Q5 Hot Start High-Fidelity 2× Master Mix (New England Biolabs) was used for both PCRs. Sufficient gDNA was amplified in PCR1 in order to maintain >600× coverage and amplicons were purified using solid phase reversible immobilization (SPRI) beads (Beckman Coulter). Purified PCR1 products were analysed on the Tapestation 4200 (Agilent) to confirm purity prior to proceeding to PCR2. Sufficient PCR1 product was amplified in PCR2 in order to maintain >600× coverage and amplicons were run on a 2% agarose TAE gel. Target bands were excised and purified using the NucleoSpin Gel and PCR Clean-up Kit (Machery Nagel). Amplicons were analysed on the Tapestation 4200 and quantified using Qubit dsDNA HS kit (ThermoFisher). PCR products were pooled and sequenced as paired-reads on the NovaSeq (Illumina) using a SP2 200 cycles kit (Illumina).
Count distributions, percentage of read mapping, library coverage and replicate correlation per sample were assessed for QC purposes.
To carry out the library screen, we used the same plasmid construct as in our earlier flow cytometry assays, but pooling all 8,380 mutants together into one Jurkat population, ensuring a copy number of one plasmid per cell (FIG. 4B). […] These GFP-negative cells were then separated from the remaining GFP-positive population using fluorescence activated cell sorting (FACS). These two populations were then sequenced and the relative abundance of every mutant in both populations compared to provide a log FC value for each mutant sequence. This value indicated how frequently a sequence is observed in the GFP-negative population relative to the GFP-positive population, and therefore how effective a degron it is for that particular IMID compound.

Structure (SMILES): CN1CCN(c2ccc3c(c2)C(=O)N(C2CCC(=O)NC2=O)C3=O)CC1 (stereo not drawn) [B08, 2-(2,6-dioxopiperidin-3-yl)-5-(4-methylpiperazin-1-yl)isoindoline-1,3-dione]
- B08_logFC (Degron-ID 3435, SEQ ID NO 2286, 46F_47S_49E_50I_52G_53A_54S_55F_67L): 2.841
- B08_logFC (Degron-ID 3476, SEQ ID NO 2339, 46F_47S_49E_50V_52G_53A_54T_55F_67L): 2.705
- B08_logFC (Degron-ID 3600, SEQ ID NO 2322, 46F_47T_49D_50I_52G_53A_54A_55F_67L): 2.751
- B08_logFC (Degron-ID 3732, SEQ ID NO 2280, 46F_47T_49N_50I_52G_53A_54P_55F_67L): 2.855
- B08_logFC (Degron-ID 3820, SEQ ID NO 2304, 46F_47T_49P_50V_52G_53A_54A_55F_67L): 2.797
- B08_logFC (Degron-ID 3832, SEQ ID NO 2318, 46F_47T_49P_50V_52G_53A_54P_55F_67L): 2.762
- B08_logFC (Degron-ID 3892, SEQ ID NO 2316, 46F_47V_49D_50V_52G_53A_54P_55F_67L): 2.764
- B08_logFC (Degron-ID 3900, SEQ ID NO 2351, 46F_47V_49E_50I_52G_53A_54A_55F_67L): 2.675
- B08_logFC (Degron-ID 3905, SEQ ID NO 2298, 46F_47V_49E_50I_52G_53A_54G_55F_67L): 2.805
- B08_logFC (Degron-ID 3955, SEQ ID NO 2295, 46F_47V_49E_50V_52G_53A_54S_55F_67L): 2.815
- B08_logFC (Degron-ID 4129, SEQ ID NO 2331, 46F_47W_49D_50V_52G_53A_54L_55F_67L): 2.733
- B08_logFC (Degron-ID 4132, SEQ ID NO 2320, 46F_47W_49D_50V_52G_53A_54P_55F_67L): 2.758
- B08_logFC (Degron-ID 4158, SEQ ID NO 2311, 46F_47W_49E_50I_52G_53A_54W_55F_67L): 2.771
- B08_logFC (Degron-ID 4168, SEQ ID NO 2309, 46F_47W_49E_50Q_52G_53A_54K_55F_67L): 2.774
- B08_logFC (Degron-ID 4182, SEQ ID NO 2288, 46F_47W_49E_50V_52G_53A_54D_55F_67L): 2.825
- B08_logFC (Degron-ID 4259, SEQ ID NO 2276, 46F_47W_49N_50V_52G_53A_54Y_55F_67L): 2.879
- B08_logFC (Degron-ID 4262, SEQ ID NO 2312, 46F_47W_49P_50I_52G_53A_54D_55F_67L): 2.769
- B08_logFC (Degron-ID 4269, SEQ ID NO 2299, 46F_47W_49P_50I_52G_53A_54L_55F_67L): 2.805
- B08_logFC (Degron-ID 4294, SEQ ID NO 2296, 46F_47W_49P_50Q_52G_53A_54R_55F_67L): 2.812
- B08_logFC (Degron-ID 4325, SEQ ID NO 2330, 46F_47Y_49D_50I_52G_53A_54G_55F_67L): 2.741
- B08_logFC (Degron-ID 4368, SEQ ID NO 2270, 46F_47Y_49D_50V_52G_53A_54K_55F_67L): 2.897
- B08_logFC (Degron-ID 4374, SEQ ID NO 2335, 46F_47Y_49D_50V_52G_53A_54R_55F_67L): 2.715
- B08_logFC (Degron-ID 4377, SEQ ID NO 2302, 46F_47Y_49D_50V_52G_53A_54V_55F_67L): 2.8
- B08_logFC (Degron-ID 4384, SEQ ID NO 2279, 46F_47Y_49E_50I_52G_53A_54F_55F_67L): 2.859
- B08_logFC (Degron-ID 4400, SEQ ID NO 2269, 46F_47Y_49E_50Q_52G_53A_54A_55F_67L): 2.899
- B08_logFC (Degron-ID 4413, SEQ ID NO 2317, 46F_47Y_49E_50Q_52G_53A_54Q_55F_67L): 2.763
- B08_logFC (Degron-ID 4415, SEQ ID NO 2272, 46F_47Y_49E_50Q_52G_53A_54S_55F_67L): 2.888
- B08_logFC (Degron-ID 4445, SEQ ID NO 2347, 46F_47Y_49N_50I_52G_53A_54G_55F_67L): 2.678
- B08_logFC (Degron-ID 4493, SEQ ID NO 2313, 46F_47Y_49N_50V_52G_53A_54Q_55F_67L): 2.769
- B08_logFC (Degron-ID 4495, SEQ ID NO 2266, 46F_47Y_49N_50V_52G_53A_54S_55F_67L): 2.902
- B08_logFC (Degron-ID 4508, SEQ ID NO 2306, 46F_47Y_49P_50I_52G_53A_54K_55F_67L): 2.789
- B08_logFC (Degron-ID 4509, SEQ ID NO 2274, 46F_47Y_49P_50I_52G_53A_54L_55F_67L): 2.886
- B08_logFC (Degron-ID 4536, SEQ ID NO 2353, 46F_47Y_49P_50Q_52G_53A_54T_55F_67L): 2.667
- B08_logFC (Degron-ID 4543, SEQ ID NO 2292, 46F_47Y_49P_50V_52G_53A_54E_55F_67L): 2.819
- B08_logFC (Degron-ID 4550, SEQ ID NO 2352, 46F_47Y_49P_50V_52G_53A_54M_55F_67L): 2.668
- B08_logFC (Degron-ID 6545, SEQ ID NO 2345, 46L_47F_49P_50I_52G_53F_54G_55C_67L): 2.683
- B08_logFC (Degron-ID 6550, SEQ ID NO 2301, 46L_47F_49P_50I_52G_53F_54M_55C_67L): 2.8
- B08_logFC (Degron-ID 6559, SEQ ID NO 2357, 46L_47F_49P_50I_52G_53F_54Y_55C_67L): 2.661
- B08_logFC (Degron-ID 6755, SEQ ID NO 2278, 46L_47S_49P_50I_52G_53F_54S_55C_67L): 2.86
- B08_logFC (Degron-ID 6775, SEQ ID NO 2332, 46L_47T_49P_50I_52G_53F_54S_55C_67L): 2.73
- B08_logFC (Degron-ID 6795, SEQ ID NO 2300, 46L_47V_49P_50I_52G_53F_54S_55C_67L): 2.801
- B08_logFC (Degron-ID 6824, SEQ ID NO 2285, 46L_47Y_49P_50I_52G_53F_54F_55C_67L): 2.841
- B08_logFC (Degron-ID 6834, SEQ ID NO 2344, 46L_47Y_49P_50I_52G_53F_54R_55C_67L): 2.685
- B08_logFC (Degron-ID 7574, SEQ ID NO 2310, 46F_47W_49E_50I_52G_53R_54R_55F_67L): 2.772
- B08_logFC (Degron-ID 7616, SEQ ID NO 2308, 46L_47A_49E_50I_52G_53F_54T_55C_67L): 2.779
- B08_logFC (Degron-ID 7636, SEQ ID NO 2363, 46L_47C_49E_50I_52G_53F_54T_55C_67L): 2.644
- B08_logFC (Degron-ID 7736, SEQ ID NO 2325, 46L_47H_49E_50I_52G_53F_54T_55C_67L): 2.749
- B08_logFC (Degron-ID 7915, SEQ ID NO 2362, 46L_47T_49E_50I_52G_53F_54S_55C_67L): 2.649
- B08_logFC (Degron-ID 7964, SEQ ID NO 2360, 46L_47Y_49E_50I_52G_53F_54F_55C_67L): 2.653
- B08_logFC (Degron-ID 7971, SEQ ID NO 2297, 46L_47Y_49E_50I_52G_53F_54N_55C_67L): 2.807
- position of the WT sequence in the volcano plot of the library screen (WT ZF sequence): far away from the ‘hits’ region
